Source: ChEMBL document CHEMBL1201862, “PubChem BioAssay data set” (2004)
Active and inactive are the calls of the source.

What was measured:
[1] = target: E3 ubiquitin-protein ligase UHRF1 (Homo sapiens, UniProt Q96T88); assay: Counterscreen for inhibitors of 5-meCpG-binding domain protein 2 (MBD2): TRFRET-based biochemical high throughput dose response assay to identify inhibitors of binding of ubiquitin-like with PHD and ring finger domains 1 (UHRF1) to methylated oligonucleotide.
[2] = target: Solute carrier family 12 member 2/member 5 (Homo sapiens, UniProt P55011+Q9H2X9); assay: KCC2 and NKCC1 inhibition by rubidium flux, cell-based, NKCC1 counter-screen (AID 1734); format: functional, HEK293
[3] = target: Photoreceptor-specific nuclear receptor (Homo sapiens, UniProt Q9Y5X4); assay: ligands suppressing NR2E3 nuclear receptor activity – biochemical, TR-FRET, dose response (AID 463256); format: functional
Photoreceptor-specific nuclear receptor, sequence (Q9Y5X4 whole entry): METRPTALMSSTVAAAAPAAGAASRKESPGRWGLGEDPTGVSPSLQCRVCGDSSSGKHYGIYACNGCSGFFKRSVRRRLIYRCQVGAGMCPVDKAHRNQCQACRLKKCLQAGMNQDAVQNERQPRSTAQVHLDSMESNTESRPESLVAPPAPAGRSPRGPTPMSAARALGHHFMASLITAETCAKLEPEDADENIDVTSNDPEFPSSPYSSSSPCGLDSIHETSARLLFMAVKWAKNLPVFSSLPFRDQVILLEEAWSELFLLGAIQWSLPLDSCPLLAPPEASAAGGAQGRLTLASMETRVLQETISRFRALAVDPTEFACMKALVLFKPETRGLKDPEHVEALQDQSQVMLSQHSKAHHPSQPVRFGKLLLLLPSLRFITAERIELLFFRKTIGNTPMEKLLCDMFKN

[4] = target: Peroxisome proliferator-activated receptor gamma/Nuclear receptor corepressor 2 (Homo sapiens, UniProt P37231+Q9Y618); assay: Counterscreen for NR2E3 inverse agonists: TR-FRET-based biochemical high throughput dose response assay to identify inverse agonists of the interaction between peroxisome proliferator-activated receptor gamma (PPARg) and nuclear receptor co-repressor 2 (NCOR2).; format: functional
[5] = target: 5-hydroxytryptamine receptor 1A (Homo sapiens, UniProt P08908); format: functional
5-hydroxytryptamine receptor 1A, sequence (P08908 whole entry): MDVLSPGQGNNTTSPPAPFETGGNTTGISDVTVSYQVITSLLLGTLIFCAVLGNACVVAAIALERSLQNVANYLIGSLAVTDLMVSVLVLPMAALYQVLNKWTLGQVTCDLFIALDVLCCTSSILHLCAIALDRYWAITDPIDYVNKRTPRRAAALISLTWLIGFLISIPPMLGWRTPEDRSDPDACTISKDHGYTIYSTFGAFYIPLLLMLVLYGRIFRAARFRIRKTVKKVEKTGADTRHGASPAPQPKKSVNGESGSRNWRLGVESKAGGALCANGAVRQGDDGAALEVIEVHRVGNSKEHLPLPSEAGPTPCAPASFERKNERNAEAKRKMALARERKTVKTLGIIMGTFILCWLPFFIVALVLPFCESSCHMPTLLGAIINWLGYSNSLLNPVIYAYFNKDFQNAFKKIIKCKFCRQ

[6] = target: Voltage-gated inwardly rectifying potassium channel KCNH2 (Homo sapiens, UniProt Q12809); assay: concentration-dependent hERG rescue from blockers – cell-based, thallium flux, dose response (AID 2121); format: ADME
Voltage-gated inwardly rectifying potassium channel KCNH2, sequence (Q12809 whole entry): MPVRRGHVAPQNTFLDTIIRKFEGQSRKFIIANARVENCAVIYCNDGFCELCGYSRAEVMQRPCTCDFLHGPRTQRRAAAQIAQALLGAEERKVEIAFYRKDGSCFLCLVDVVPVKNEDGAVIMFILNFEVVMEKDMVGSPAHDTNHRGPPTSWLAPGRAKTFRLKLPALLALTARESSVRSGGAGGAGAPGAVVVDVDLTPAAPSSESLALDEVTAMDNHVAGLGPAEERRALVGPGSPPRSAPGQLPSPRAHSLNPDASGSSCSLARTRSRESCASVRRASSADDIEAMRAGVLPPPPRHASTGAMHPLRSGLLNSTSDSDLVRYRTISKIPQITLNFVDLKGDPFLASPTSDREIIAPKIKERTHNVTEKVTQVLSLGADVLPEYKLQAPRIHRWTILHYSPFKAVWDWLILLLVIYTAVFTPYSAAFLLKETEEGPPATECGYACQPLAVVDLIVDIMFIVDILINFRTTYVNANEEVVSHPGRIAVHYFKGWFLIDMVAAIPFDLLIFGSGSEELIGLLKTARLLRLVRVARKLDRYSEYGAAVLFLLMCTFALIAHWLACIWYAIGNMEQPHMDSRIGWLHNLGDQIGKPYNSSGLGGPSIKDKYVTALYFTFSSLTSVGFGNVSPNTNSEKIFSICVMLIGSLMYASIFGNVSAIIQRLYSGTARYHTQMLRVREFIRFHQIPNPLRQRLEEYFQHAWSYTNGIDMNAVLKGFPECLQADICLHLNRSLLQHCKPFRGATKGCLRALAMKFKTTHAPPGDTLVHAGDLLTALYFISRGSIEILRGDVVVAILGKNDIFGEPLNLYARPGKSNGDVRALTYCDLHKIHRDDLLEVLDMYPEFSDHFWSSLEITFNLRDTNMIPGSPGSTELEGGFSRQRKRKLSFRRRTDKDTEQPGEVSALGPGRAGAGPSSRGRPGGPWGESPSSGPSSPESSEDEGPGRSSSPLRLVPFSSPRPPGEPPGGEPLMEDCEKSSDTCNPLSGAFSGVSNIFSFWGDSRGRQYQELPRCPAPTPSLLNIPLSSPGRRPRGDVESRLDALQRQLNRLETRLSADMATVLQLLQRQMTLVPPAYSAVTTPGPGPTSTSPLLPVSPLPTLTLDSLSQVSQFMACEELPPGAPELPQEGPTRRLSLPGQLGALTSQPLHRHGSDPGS

NADPH oxidase 1 = NADPH oxidase 1 (Homo sapiens, UniProt Q9Y5S8); assay: Late-stage luminescence-based cell-based dose response assay to identify inhibitors of NADPH oxidase 1 (NOX1): Synthesized analogs.; format: functional
NADPH oxidase 1, sequence (Q9Y5S8 whole entry): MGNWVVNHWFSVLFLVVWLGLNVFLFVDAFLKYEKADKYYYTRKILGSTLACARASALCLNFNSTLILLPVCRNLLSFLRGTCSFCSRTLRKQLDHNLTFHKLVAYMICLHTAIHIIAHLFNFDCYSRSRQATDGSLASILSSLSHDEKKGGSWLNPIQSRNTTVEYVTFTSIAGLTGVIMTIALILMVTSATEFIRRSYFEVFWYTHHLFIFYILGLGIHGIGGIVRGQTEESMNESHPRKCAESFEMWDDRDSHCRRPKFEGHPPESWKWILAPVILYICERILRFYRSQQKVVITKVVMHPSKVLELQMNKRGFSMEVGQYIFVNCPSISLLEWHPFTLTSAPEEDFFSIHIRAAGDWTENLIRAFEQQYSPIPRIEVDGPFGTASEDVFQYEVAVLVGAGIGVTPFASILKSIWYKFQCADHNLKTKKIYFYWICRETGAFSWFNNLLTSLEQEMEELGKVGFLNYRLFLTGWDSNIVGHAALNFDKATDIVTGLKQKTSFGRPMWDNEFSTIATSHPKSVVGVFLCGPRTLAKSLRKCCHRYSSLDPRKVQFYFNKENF

14-3-3 protein gamma = 14-3-3 protein gamma (Homo sapiens, UniProt P61981); assay: modulators of 14-3-3 gamma client binding – dose response (AID 711); format: functional
14-3-3 protein gamma, sequence (P61981 whole entry): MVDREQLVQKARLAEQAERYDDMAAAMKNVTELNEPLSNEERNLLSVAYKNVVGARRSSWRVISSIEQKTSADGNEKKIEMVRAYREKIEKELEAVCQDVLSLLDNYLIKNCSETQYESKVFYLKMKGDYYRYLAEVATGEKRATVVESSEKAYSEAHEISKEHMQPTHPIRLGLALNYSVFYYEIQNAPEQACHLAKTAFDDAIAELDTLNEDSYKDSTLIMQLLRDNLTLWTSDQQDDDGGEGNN

[7] = COV434 cell viability loss – plate reader, dry powder, SA7, cytotoxicity control for PAX8 inhibitor project, dose response (AID 743145); format: functional, cell-based
BJ [8] = assay: BJ-TERT fibroblast viability loss – cell-based, RAS-independent, luminescence, dose response (AID 1933); format: functional; conditions: Homo sapiens
[9] = IGROV1 cell killing – plate reader, dry powder samples, PAX8 inhibitor project, dose response (AID 743043); format: functional, cell-based; conditions: IGROV-1
[10] = DRD fibroblast viability loss – cell-based, non-viral oncogenic, luminescence, dose response (AID 1934); format: functional; conditions: Homo sapiens
[11] = OVCAR4 cell viability loss – plate reader, dry powder, SA11, cytotoxicity control for PAX8 inhibitor project, dose response (AID 743150); format: functional, cell-based; conditions: OVCAR-4
[12] = toxicity toward immortalized ovarian surface epithelium – cell-based, plate reader, dry powder samples, cytotoxicity control for PAX8 inhibitor project, dose response (AID 743045); format: functional
BJ [13] = assay: BJ-TERT-LT-ST fibroblast viability loss – cell-based, RAS-independent, luminescence, dose response (AID 1935); format: functional; conditions: Homo sapiens;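 note: BJ fibroblasts immortalized with TERT plus LT and ST oncogenes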
[14] = luciferase reporter signal suppression in cells – H4 neuroglioma cells, luminescence, dose response (AID 1990); format: functional, cell-based
[15] = OV-90 cell viability loss – plate reader, dry powder, SA8, PAX8 inhibitor project, dose response (AID 743149); format: functional, cell-based
[16] = A2780 cell killing – plate reader, dry powder samples, cytotoxicity control, dose response (AID 743046); format: functional, cell-based
[17] = PAX8-dependent cell viability loss – plate reader, dry powder, dose response (AID 743049); format: functional, cell-based
[18] = Luminescence Cell-Based Dose Response HTS to Identify Inhibitors of 5'UTR Stem-Loop Driven Prion Protein mRNA Translation in H4 Neuroglioblastoma Cells. [Related pubchem assays: 1827 (Project Summary), 1813 (Primary HTS)]; format: functional
[19] = PAX5 cellular inhibition readout – cell-based, plate reader, dry powder samples, selectivity assay for PAX8 inhibitor project, dose response (AID 743047); format: functional;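 note: HEK293 cells carrying a Pax5 driven CD19 promoter luciferase reporter; potency of inhibitors that lower reporter luminescence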
BJ [20] = assay: growth inhibition of engineered Ras-driven BJ cells – cell-based, alamar blue fluorescence, cherrypicked samples, dose response (AID 2631); format: functional; conditions: Homo sapiens;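 note: confirmatory dose-response assay in RAS-dependent BJ fibroblasts engineered with TERT, LT and ST, with cytotoxicity read by fluorescence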
[21] = COV362 cell viability loss – plate reader, dry powder, SA12, cytotoxicity control for PAX8 inhibitor project, dose response (AID 743144); format: functional, cell-based
[22] = Luminescence-based dose response cell-based high throughput screening assay for cytotoxic compounds using the IEC-6 intestinal epithelial cell line. [Related pubchem assays: 1858 (Summary AID.), 1825 (Counterscreen.), 1907 (Confirmation screen.)]; format: functional
Paired box protein Pax-8 = Paired box protein Pax-8 (Homo sapiens, UniProt Q06710); assay: PAX8 transcriptional activity inhibition in RMG-I – RMG-I cells, luciferase, cherry-pick, dose response (AID 687027); format: functional, cell-based;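 note: luciferase reporter driven by Pax8 target thyroperoxidase promoter measured by SteadyGlo luminescence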
Paired box protein Pax-8, sequence (Q06710 whole entry): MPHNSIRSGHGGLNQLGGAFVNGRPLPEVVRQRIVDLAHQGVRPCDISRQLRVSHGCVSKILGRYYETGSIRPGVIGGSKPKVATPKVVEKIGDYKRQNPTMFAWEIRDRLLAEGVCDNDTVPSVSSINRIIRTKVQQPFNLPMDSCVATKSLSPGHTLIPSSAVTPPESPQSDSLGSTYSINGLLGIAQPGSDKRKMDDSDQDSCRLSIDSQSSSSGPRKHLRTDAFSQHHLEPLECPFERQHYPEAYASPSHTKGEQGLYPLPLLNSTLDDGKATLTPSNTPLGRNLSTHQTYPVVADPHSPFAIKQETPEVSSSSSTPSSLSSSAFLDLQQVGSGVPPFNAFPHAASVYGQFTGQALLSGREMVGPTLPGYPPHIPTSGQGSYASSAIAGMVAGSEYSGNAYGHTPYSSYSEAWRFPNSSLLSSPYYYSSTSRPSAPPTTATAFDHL

[23] = inhibitors acting on PAX2 in cells – cell-based, plate reader, dry powder samples, selectivity assay for PAX8 inhibitor project, dose response (AID 743048); format: functional;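 note: HEK293 cells carrying a WT1 promoter luciferase reporter driven by expressed Pax2; potency is for inhibition of Pax2 driven reporter signal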
[24] = alpha-synuclein stem-loop luciferase translation blockers – H4 neuroglioma cells, luminescence, confirmation (AID 1988); format: functional, cell-based
[25] = OVCAR-3 cell viability loss – plate reader, dry powder samples, PAX8 inhibitor project, dose response (AID 743044); format: functional, cell-based
BJ [26] = assay: cells; format: functional, cell-based; conditions: Homo sapiens

E3 ubiquitin-protein ligase UHRF1, sequence (Q96T88 whole entry, the tested form may be a part): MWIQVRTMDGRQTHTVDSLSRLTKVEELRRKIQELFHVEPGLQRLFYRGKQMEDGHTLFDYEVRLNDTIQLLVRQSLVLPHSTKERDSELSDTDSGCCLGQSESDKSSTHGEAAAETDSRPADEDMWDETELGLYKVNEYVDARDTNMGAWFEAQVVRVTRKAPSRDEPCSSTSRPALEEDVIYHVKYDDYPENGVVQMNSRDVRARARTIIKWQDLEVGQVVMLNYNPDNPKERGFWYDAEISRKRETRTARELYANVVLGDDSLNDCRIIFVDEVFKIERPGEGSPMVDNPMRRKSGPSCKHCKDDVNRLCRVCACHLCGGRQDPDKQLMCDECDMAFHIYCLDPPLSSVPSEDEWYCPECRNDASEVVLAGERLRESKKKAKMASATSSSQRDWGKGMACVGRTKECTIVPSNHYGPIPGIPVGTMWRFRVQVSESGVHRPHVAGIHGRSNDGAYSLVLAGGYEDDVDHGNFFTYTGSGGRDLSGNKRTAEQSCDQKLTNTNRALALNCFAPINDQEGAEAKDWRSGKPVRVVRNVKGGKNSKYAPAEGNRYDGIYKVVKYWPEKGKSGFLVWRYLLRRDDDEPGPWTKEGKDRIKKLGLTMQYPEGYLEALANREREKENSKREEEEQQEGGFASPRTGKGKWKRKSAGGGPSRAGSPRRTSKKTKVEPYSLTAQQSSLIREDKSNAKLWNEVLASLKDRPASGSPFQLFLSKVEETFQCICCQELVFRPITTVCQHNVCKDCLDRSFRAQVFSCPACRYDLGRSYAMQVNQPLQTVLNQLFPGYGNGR

NC1=C(c2nc3ccccc3s2)C(=O)CN1NC(=O)c1c[nH]c2ccccc12
inactive: IC50 [1] > 43.8 µM

O=C(CN1C(=O)NC2(CCCC2)C1=O)Nc1nc(-c2ccc(F)cc2)cs1
active: IC50 [2] 2.9 µM

O=C(NCc1ccccn1)c1cccn1-c1ncc(C(F)(F)F)cc1Cl
active: IC50 [3] 9.98 µM | IC50 [4] 9.96 µM

CCOC(=O)C1=C(C)NC(=O)NC1c1ccc(OCC(=O)Nc2ccccc2)c(OC)c1 (centres undefined)
> 50 µM (not active): EC50 [5]

O=C(NC(=S)NCCc1ccccc1)c1cccc(Cl)c1
active: EC50 [6] 3.5 µM

CC(=NNc1ccc(C(=O)O)cc1)c1ccc2c(c1)Nc1ccccc1S2
active: IC50 (NADPH oxidase 1) 0.561 µM

Cc1ccc(-n2c(=O)[nH]cc(C(=O)Nc3ccc4c(c3)OCCO4)c2=O)cc1C
> 50 µM (not active): IC50 (14-3-3 protein gamma)

CCN(CC)c1ccc2c(cc1=O)[C@@H](NC)CCc1cc(OC)c(OC)c(OC)c1-2
active: AC50 [7] 3.45 µM | EC50 (BJ [8]) 1.62 µM | AC50 [9] 5.6 µM | EC50 [10] 0.953 µM | AC50 [11] 3.39 µM | AC50 [12] 6.57 µM | EC50 [14] 1.03 µM | AC50 [15] 1.63 µM | AC50 [16] 11.7 µM | AC50 [17] 6.61 µM | EC50 [18] 0.684 µM | AC50 [19] 2.89 µM | EC50 (BJ [20]) 0.343 µM | AC50 [21] 2.73 µM | IC50 [22] 1.49 µM | AC50 (Paired box protein Pax-8) 2.9 µM | AC50 [23] 5.95 µM | EC50 [24] 0.35 µM | AC50 [25] 7.15 µM
inconclusive: EC50 (BJ [13]) 1.07 µM | EC50 (BJ [26]) 1.36 µM
